Results taken from patent US20020040203A1, “Method for transdermal or intradermal delivery of molecules” (priority 2000, published 2002).

Tests used:
[1] = cited from earlier work
[2] = Transport of model molecules through heat-stripped porcine stratum corneum by electroporation, Hanson Vertical Diffusion chamber; format: in vitro ADME; settings: for transport across the SC to the acceptor chamber: negative pulses 375V, 1 msec, 1 Hz, up to 30 min
Method: Stratum corneum layer was obtained from porcine skin by heat treatment as follows. Fresh pieces of porcine skin were wrapped in aluminum foil and placed in a 60° C. water bath for 5 minutes. The SC was gently pulled away from the remaining tissue. The SC can be used directly or stored on glass microscope slides at 4° C. The SC was then used in a Hanson Vertical Diffusion chamber. This simple device is an accepted model system for studying transport through skin by those skilled in the art. This device contains two compartments which are filled with a suitable buffer (10 mM Tris, 100 mM NaCl, 1 mM EDTA at pH 8.0). One of the compartments acts as the donor and the other as the acceptor. The liposomes and the test molecule are added to the donor chamber. The outermost layer of the skin, the SC forms an effective barrier to the transport of biomolecules. The upper chamber was considered as the outer surface of the skin and the lower chamber as the skin directly below the SC. Platinum wires served as electrodes, one was placed in the upper chamber and the other in the lower chamber. Electric pulses were applied across the SC using a pulse generator.
Lipid formulations were prepared as follows. Dioleylphosphatidylglycerol and dioleylphosphatidyl choline was mixed at an approximate 1:1 molar ratio and dispersed in buffer by vigorous vortexing resulting in the formation of multilamellar lipid vesicles (MLV). The molecular weights of the molecules tested range from 200 to 600. The model molecules were chosen for their charge and their respective solubility.
[…] The model molecule as a solution in buffer was then added to the upper chamber. During the next 10 min no pulses were applied. An aliquot of the buffer was removed from the lower (acceptor) chamber. Pulses were next applied for 10, 20 and 30 min and aliquots removed from the lower chamber for analysis at 10, 20 and 30 min to determine delivery of the model molecule. Another aliquot was removed from the lower chamber 10 min after cessation of pulse application. In control studies, the SC was pre-pulsed for 10 min with buffer only (no lipid) and then the model molecule added in the upper chamber and pulsed for three further periods of 10 min each.
The amount of the model molecule transported to the acceptor chamber was measured in the aliquots removed at different times by using fluorescence spectroscopy.

[3] = cited from earlier work; for charge: pH 8 stated for PP-IX
[4] = SC pre-treated with DOPG:DOPC lipid formulation
[5] = absence of lipid formulation (pre-pulsed with buffer only)

effect of lipid formulation on transport ([2]; pulses of positive polarity, DOPG:DOPC MLV present)	Compound	log P (partition coefficient between octanol and water) [1]	transport across the SC to the acceptor chamber [2, 4]	transport across the SC to the acceptor chamber [2, 5]	solubility [3]	charge [3]	concentration in the lower chamber after cessation of pulse application ([2]; negative pulses, SC pre-treated with lipid formulation, 10 min without pulse)
	bleomycin	very negative					
	C=CC1=C(C)c2cc3[nH]c(cc4nc(cc5[nH]c(cc1n2)c(C)c5CCC(=O)O)C(CCC(=O)O)=C4C)c(C)c3C=C [PP-IX, protoporphyrin IX]		an increase in the transport in the presence of the added lipid	significant transport of PP-IX across the SC	low solubility		
	methylated protoprophyrin IX [MPP-IX]		enhanced transport	very low transport	soluble only in the presence of detergents	no charge	
inhibited the transport of MB	CN(C)c1ccc2nc3ccc(=[N+](C)C)cc-3sc2c1 [MB, Methylene Blue]		large amount of MB transported across the SC	very little MB present in the acceptor chamber		positively charged	continued increase in MB concentration in the lower chamber
